Non-standard residues stand in square brackets, D forms with d. Residues, ends and D or L forms follow the SMILES beside them. ξ: configuration not given here. *: point of attachment. ξQ = NC(=O)CCC(N)C(=O)O; Cbz = O=C(OCc1ccccc1)*

For the molecule `O=C1c2ccccc2Nc2ccccc2N1CCCCl`, the melting point (commonly the temperature, or range, at which the solid turns liquid) lay within 127 to 131 °C. The figure for `COc1cc(C2CCC(c3cc(OC)c(OC)c(OC)c3)C2O)cc(OC)c1OC` (centres undefined) is 138 to 140 °C; for `Oc1cccc2c1CC1CNCC2C1` (centres undefined) it is 106 to 108 °C; for `Cn1c(COc2ccc(CC(OCc3ccc(F)cc3)C(=O)O)cc2)nc2ccc(Sc3cc(C(C)(C)C)c(O)c(C(C)(C)C)c3)cc21` (centres undefined) it is 40 to 46 °C. The figure for `O=C(O)c1cn2c(n1)COc1ccccc1-2` is 256 to 258 °C; for `CN(C)S(=O)(=O)c1ccc(C(F)(F)F)cc1[N+](=O)[O-]` it is 102 to 104 °C; for `CCOC(=O)C(C(=O)OCC)c1ccc(OCc2ccccc2)cc1` it is 65 to 66 °C. The figure for `CC(C)c1ccc(C(=O)O)cc1S(N)(=O)=O` is 245 °C; for `COC(=O)CNC(=O)CNC(=O)C(CCC(N)=O)NC(=O)OCc1ccccc1` (stereo not drawn) (Cbz-[ξQ]-Gly-Gly-OMe) it is 129 to 134 °C. Molecule `Nc1cccc2c1C(=O)c1c(N)cccc1C2=O` returned a melting point of 272 to 273 °C. The figure for `CC(C)OC(=O)c1cnc(C(=O)O)cn1` is 149 to 152 °C; for `C[C@H](CNC(=O)COc1cc(C(F)(F)F)c2c(-c3ccccc3)nn(C)c2n1)c1ccccc1` it is 91 to 93 °C. Under `CSc1ccc2nc(-c3cccc(C)c3)c(-c3ccnc(NC4CCCCC4)c3)n2n1` stands 150 to 151 °C. In turn, `N#CCCCCCCn1c(-c2ccccc2)nc(-c2ccccc2)c1-c1ccccc1` had a melting point of 104 to 106 °C. The figure for `CC(=O)OCC1OC(OCC(C)=CCN2C(=O)c3ccccc3C2=O)C(OC(C)=O)C(OC(C)=O)C1OC(C)=O` (centres undefined) is 104 to 105 °C. Under `Cn1nnc2c(N3CCNCC3)ncnc21` stands 95 to 96 °C; under `COc1ccc(Cl)cc1C(=O)NC1COc2cc(OC)c(S(=O)(=O)NC(=O)NC(C)C)cc2C1` (centres undefined), 181 to 183 °C.

In turn, `COC1OCC[C@@H]1NC(=O)CN(CC(C)C)C(=O)CNC(=O)COc1ccc2c(c1)Nc1ccccc1S2` (some centres undefined) displayed a melting point of 162 to 164 °C. For `O[Si](Cn1cncn1)(c1ccc(F)cc1)c1ccc(F)cc1`, the melting point is 130 to 131 °C.

With `O=C1CCn2c(CCc3ccccc3)nc3cccc1c32`, the melting point is 112 to 113 °C. `FC(F)(F)c1ccc(-c2cc(C(F)(F)F)n3nccc3n2)cc1` gave a melting point of 110 to 111 °C. The figure for `O=C1Cc2cc(Sc3ccccc3)ncc2N1` is 186 to 189 °C.

As to `CC(=NOCCOc1ccc(CC2SC(=O)NC2=O)cc1)c1ccc2ccccc2n1` (centres undefined), the melting point is 162 to 163 °C. Under `CC(C)Oc1cc(CO)n(Cc2ccc(Cl)cc2Cl)n1` stands 89 to 90 °C; under `CC(=O)OC1CCC2(C)C(=CC(=O)C3C4CCC(=O)C4(C)CCC32)C1=O` (centres undefined), 193 to 195 °C. The figure for `CC(C)Oc1ccccc1-c1ncc(C#N)c(=O)[nH]1` is 182 to 184 °C. The figure for `COc1cc2ccccc2cc1-c1nc(N)nc(N)n1` is 243 to 244 °C. `CN(C)C(=O)Cc1ccccc1Nc1ccnc2cc(C(F)(F)F)ccc12` displayed a melting point of 172 to 173 °C.

Molecule `CCCc1c(COc2ccc(-c3nnn[nH]3)cc2)ccc(C(C)=O)c1O` came in with a melting point of 203 to 205 °C. The figure for `C=Cc1cc(C)c(C(=O)N=C(N)N)cc1S(C)(=O)=O` is 223 to 226 °C; for `O=C(CCC12CCC(=O)N1C(=O)CC2)OCc1ccc(Cl)cc1` it is 141 to 142 °C; for `CN(C)CCCCCCNC(=O)c1ccc(-c2nnc(CSCCOc3ccccc3)o2)cc1` it is 86 to 93 °C. On to `CC(C)(C)OC(=O)NC1COCCCC=CC2CC2(C(=O)NS(=O)(=O)C2CC2)NC(=O)C2CC(OC(=O)c3ccccc3)CN2C1=O` (centres undefined), for which the melting point lay in the range of 135 to 137 °C. The figure for `CCN(CC)Cc1ccc2[nH]c(C)c(C(=O)OCc3ccccc3)c2c1` is 106 to 108 °C.

These data come from a melting point compilation (Tetko et al.; mined from patent text by program, amines drawn as free bases though some values may be those of a salt).
